The target in test [1] is T1, human alpha2A receptors (Homo sapiens, UniProt P08913).
T1 construct: host or cells: Chinese hamster ovary (CHO) cells, cotransfected with pCEP-Gα16
T1 sequence (P08913 1-465): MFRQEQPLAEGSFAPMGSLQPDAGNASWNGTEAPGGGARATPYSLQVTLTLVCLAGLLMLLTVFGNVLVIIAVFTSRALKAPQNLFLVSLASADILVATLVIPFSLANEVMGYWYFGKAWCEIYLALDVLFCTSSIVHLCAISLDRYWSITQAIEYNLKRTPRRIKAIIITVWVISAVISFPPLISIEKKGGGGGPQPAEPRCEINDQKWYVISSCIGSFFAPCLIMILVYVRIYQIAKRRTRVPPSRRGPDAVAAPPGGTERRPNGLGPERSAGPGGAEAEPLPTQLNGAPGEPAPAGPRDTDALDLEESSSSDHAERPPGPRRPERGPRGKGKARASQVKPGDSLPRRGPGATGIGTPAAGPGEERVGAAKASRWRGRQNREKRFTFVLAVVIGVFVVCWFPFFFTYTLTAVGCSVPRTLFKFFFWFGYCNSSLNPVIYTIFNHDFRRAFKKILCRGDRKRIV
Description: Determination of alpha2A antagonistic activity in vitro (intracellular calcium, FLIPR Calcium 3). The format is cell-based. As to conditions: CHO cells stably transfected with human alpha2A receptor and Gα16; stimulated with 100 nM adrenaline or 200 nM noradrenaline; 37° C. The procedure:
(§1) Experiment 1: Determination of alpha2A and alpha2C Antagonistic Activity In Vitro
(§2) Chinese hamster ovary (CHO) cells stably transfected with human alpha2A or alpha2C receptors (University of Turku, Finland) were cotransfected with the expression vector pCEP-Gα16 (Molecular Devices, CA, USA) were used in this experiment. The cells were maintained at 37° C. in a 5% CO2/95% air atmosphere. The cells were cultured in HAM F-12 medium supplemented with 10% FCS, 25 mM HEPES, 100 IU/ml penicillin, 100 μg/ml streptomycin, 500 μg/ml geneticin and 240 μg/ml hygromycin B. The cells were subcultured twice weekly with 0.25% trypsin and 1 mM EDTA. The subculture ratio was 1:5-1:20. The growth medium was changed every 2 or 3 days. All cell culture reagents were from Gibco. The day before the experiment the cells were plated into black-walled, clear bottom 96-well plates at a density of 30,000-45,000 cells/well.
(§3) The growth medium was removed and the cells were incubated with the test compounds and the FLIPR Calcium 3 Assay reagent (Molecular Devices, CA, USA) for 1 h at 37° C. in dark. The test compounds (concentrations in cells 100 pM-10 μM) were dissolved in Probenecid-Ringer consisting of 150 mM NaCl, 3 mM KCl, 1.2 mM MgCl2, 1 mM CaCl2, 5 mM glucose, 20 mM HEPES and 2.5 mM probenecid (pH 7.4 adjusted with 1.0 M NaOH). The osmolarity was adjusted to 322 milliosmoles with Osmostat® OM-6020 osmometer (DIC Kyoto Daiichi Kagagu Co. Ltd, Japan). […] All experiments were performed at 37° C. The test compounds dissolved in Probenecid-Ringer were applied by FLEX station at 17 s time point. […] In order to determine antagonism, the cells were stimulated either with 100 nM adrenaline or 200 nM noradrenaline and the test compounds were added to the cells at least 5 min before the experiment. Typically, there were four replicates at each concentration and seven different dose levels. For example, if the number of plates from which results were obtained was three, 84 (4*7*3) wells were thus measured to construct dose-response relationship. The samples were excited at 485 nm and emission was detected at 525 nm with a 515 nm cut-off filter. Reading time was 60 s per well and the photomultiplier sensitivity value was set to 15. The minimum fluorescence value subtracted from the maximum value for each well was used in the calculations. SOFTmax PRO version 3.2 software was used for analyzing the results. Fitting of the antagonist dose-response results was performed with the free Hill equation and the IC50 values were fitted with Michaelis-Menten equation in Sigma Plot 8.0.
(In general: Calcium flux is commonly read through the fluorescence of an indicator in the cells.)

Test [2] addresses T2, human alpha2C receptors (Homo sapiens, UniProt P18825).
T2 construct: host or cells: Chinese hamster ovary (CHO) cells, cotransfected with pCEP-Gα16
T2 sequence (P18825 1-462): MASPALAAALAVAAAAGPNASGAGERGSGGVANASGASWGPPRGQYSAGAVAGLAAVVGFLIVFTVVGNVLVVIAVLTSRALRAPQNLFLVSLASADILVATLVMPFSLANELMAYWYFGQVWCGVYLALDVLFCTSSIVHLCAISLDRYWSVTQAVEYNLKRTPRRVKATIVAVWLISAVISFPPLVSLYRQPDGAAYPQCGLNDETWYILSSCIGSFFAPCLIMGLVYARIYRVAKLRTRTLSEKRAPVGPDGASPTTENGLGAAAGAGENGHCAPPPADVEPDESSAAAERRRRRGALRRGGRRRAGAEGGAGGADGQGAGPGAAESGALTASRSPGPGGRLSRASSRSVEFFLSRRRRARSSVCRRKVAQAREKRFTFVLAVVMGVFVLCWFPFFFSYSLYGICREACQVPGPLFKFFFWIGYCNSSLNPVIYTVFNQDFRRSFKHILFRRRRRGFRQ
Description: Determination of alpha2C antagonistic activity in vitro (intracellular calcium, FLIPR Calcium 3). Format: cell-based. As to conditions: for IC50: CHO cells stably transfected with human alpha2C receptor and Gα16, stimulated with 100 nM adrenaline or 200 nM noradrenaline, 37° C., read-out: IC50/nM Alpha2C. The protocol:
as §1, §2, §3

As usually defined, the pIC50 is the IC50 on a negative log10 scale, so that one unit is a factor of ten.

The structures appear in SMILES notation. pIC50: −log10 of the molar value. Where two headings read alike, the source gives them in different places.

For `COCc1ccccc1N1CCN(C[C@H]2COc3ccccc3O2)CC1` [Example 17, (S)-1-((2,3-Dihydrobenzo[b][1,4]dioxin-2-yl)methy)-4-(2-(methoxymethyl)phenyl)piperazine], the IC50 came to 2180 nM in test [1] and 8.2 nM in test [2].

`COCc1ccccc1N1CCN(C[C@@H]2COc3ccccc3O2)CC1` [Example 18, (R)-1-((2,3-Dihydrobenzo[b][1,4]dioxin-2-yl)methyl)-4-(2-(methoxymethyl)phenyl)piperazine]: the IC50 stood at 41100 nM in test [1] and 134 nM in test [2].

As to `OCc1c(F)cccc1N1CCN(CC2COc3ccccc3O2)CC1` (stereo not drawn) [Example 23, (2-(4-((2,3-Dihydrobenzo[b][1,4]dioxin-2-yl)methyl)piperazin-1-yl)-6-fluorophenyl)methanol], the IC50 amounted to 10700 nM in test [1] and 30.6 nM in test [2].

In the case of `c1coc(-c2ccccc2N2CCN(C[C@H]3COc4ccccc4O3)CC2)c1` [Example 29, (S)-1-((2,3-Dihydrobenzo[b][1,4]dioxin-2-yl)methyl)-4-(2-(furan-2-yl)phenyl)piperazine], the IC50 worked out at 12700 nM in test [1] and 18 nM in test [2].

In the case of `Cc1ccccc1N1CCN(C[C@H]2COc3ccccc3O2)CC1` [Example 31, (S)-1-((2,3-Dihydrobenzo[b][1,4]dioxin-2-yl)methyl)-4-o-tolylpiperazine], the IC50 in test [1] turned out to be 16900 nM. The negative-log IC50 (pIC50) in test [2] was 7.75.

Regarding `COC(=O)c1ccccc1N1CCCN(CC2COc3ccccc3O2)CC1` (stereo not drawn) [Example 36, Methyl 2-(4-((2,3-dihydrobenzo[b][1,4]dioxin-2-yl)methyl)-1,4-diazepan-1-yl)benzoate], the IC50 was 3900 nM in test [1] and 13.7 nM in test [2].

The record behind these values is patent US20110262352A1, “ARYL PIPERAZINE AND THEIR USE AS ALPHA2C ANTAGONISTS” (priority 2008, published 2011).
